Results from ChEMBL document CHEMBL1124557, “Pentadienyl carboxamide derivatives as antagonists of platelet-activating factor” (J Med Chem, 1989).

How the values were obtained:
Cavia porcellus [1] = assay: Ability to prevent PAF-induced bronchoconstriction in guinea pig when administered at a dose of 1 mg/kg intravenously; format: functional; details: route intravenous
[2] = biological target: Platelet-activating factor receptor (Cavia porcellus) (UniProt P21556); assay: Ability to prevent PAF-induced bronchoconstriction in guinea pig 2 hr after administration (50 mg/kg perorally); format: functional, organism-based
[3] = biological target: Platelet-activating factor receptor (Cavia porcellus) (UniProt P21556); assay: Ability to prevent PAF-induced bronchoconstriction in guinea pig when administered intravenously; format: functional
Cavia porcellus [4] = assay: Inhibition of PAF-induced bronchoconstriction in guinea pig 2 hr after p.o. administration.; format: functional; details: po, read-out: ID50 (the source's name)
Cavia porcellus [5] = assay: Ability to prevent PAF-induced bronchoconstriction in guinea pig 6 hr following 50 mg/kg p.o. administration.; format: functional; details: route oral

Sequence of Platelet-activating factor receptor (Cavia porcellus) (P21556 whole entry): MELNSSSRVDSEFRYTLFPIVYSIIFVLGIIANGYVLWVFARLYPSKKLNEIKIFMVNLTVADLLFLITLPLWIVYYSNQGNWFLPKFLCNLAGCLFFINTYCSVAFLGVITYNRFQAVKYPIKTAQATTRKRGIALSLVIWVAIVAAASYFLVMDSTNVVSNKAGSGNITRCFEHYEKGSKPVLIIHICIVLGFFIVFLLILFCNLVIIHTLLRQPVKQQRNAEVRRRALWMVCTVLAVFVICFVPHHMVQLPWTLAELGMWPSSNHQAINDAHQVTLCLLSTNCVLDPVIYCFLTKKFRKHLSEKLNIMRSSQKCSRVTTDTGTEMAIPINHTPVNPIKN

| SMILES | inhibition in vivo at 1 mg/kg (Cavia porcellus [1]) [%] | inhibition [2] [%] | ID50 [3] [mg/kg] | ED50 (Cavia porcellus [4]) [mg/kg] | inhibition in vivo at 50 mg/kg (Cavia porcellus [5]) [%] |
| --- | --- | --- | --- | --- | --- |
| CCCCCC(=C/C=C/C(=O)N[C@H](C)CCCc1cccnc1)CCCCC | 78 | 4 | 0.64 |  |  |
| COc1ccc(/C(C)=C/C=C/C(=O)N[C@H](C)CCCc2cccnc2)cc1 | 42 |  |  |  |  |
| COc1ccc(/C=C/C=C/C(=O)N[C@H](C)CCCc2cccnc2)cc1 | -17 |  |  |  |  |
| COc1ccc(/C(=C\C=C\C(=O)N[C@H](C)CCCc2cccnc2)C2CCCCC2)cc1 | 18 |  |  |  |  |
| C[C@@H](CCCc1cccnc1)NC(=O)/C=C/C=C(c1ccc(F)cc1)c1ccc(F)cc1 | 21 |  |  |  |  |
| COc1ccc(C(=C/C=C/C(=O)N[C@@H](CCCc2cccnc2)C2CCCC2)c2ccc(OC)cc2)cc1 | 19 |  |  |  |  |
| CCCC/C(=C\C=C\C(=O)N[C@H](C)CCCc1cccnc1)c1ccc(OC)cc1 | 99 | 98 | 0.68 | 12 | 69 |
| COc1ccc(C(=C/C=C/C(=O)N[C@@H](CCCc2cccnc2)C(C)C)c2ccc(OC)cc2)cc1 | 87 | 57 | 0.43 | 26 |  |
| C[C@@H](CCCc1cccnc1)NC(=O)/C=C/C=C(c1cccc(F)c1)c1cccc(F)c1 | 34 | 46 |  |  |  |
| COc1cccc(C(=C/C=C/C(=O)N[C@H](C)CCCc2cccnc2)c2cccc(OC)c2)c1 | 88 | 86 | 0.21 | 29 | 12 |
| COc1cccc(/C(=C/C=C/C(=O)NCCCCc2cccnc2)c2cccc(F)c2)c1 | 90 | 1 | 0.25 |  |  |
| COc1ccc(C(=C/C=C/C(=O)N[C@H](C)CCCc2cccnc2)c2ccc(OC)c(OC)c2)cc1OC | 99 | 67 | 0.14 | 26 | 2 |
| COc1cccc(/C(=C\C=C\C(=O)NCCCCc2cccnc2)c2cccc(F)c2)c1 | 88 | 25 | 0.46 |  |  |
| CCCCCCCC/C(=C\C=C\C(=O)N[C@H](C)CCCc1cccnc1)c1ccc(OC)cc1 | 98 | 84 | 0.1 | 13 | 27 |
| C[C@H](CCCc1cccnc1)NC(=O)/C=C/C=C(c1ccc(F)cc1)c1ccc(F)cc1 | 70 | 53 | 0.31 |  |  |
| CC/C(=C\C=C\C(=O)N[C@H](C)CCCc1cccnc1)c1ccc(OC)cc1 | 72 | 84 | 0.68 | 35 | 9 |
| COc1ccc(C(=C/C=C/C(=O)Nc2ccc(-c3cccnc3)cc2)c2ccc(OC)cc2)cc1 | 97 | 82 | 0.15 | 29 | 77 |
| CCCC[C@H](CCCc1cccnc1)NC(=O)/C=C/C=C(c1ccc(OC)cc1)c1ccc(OC)cc1 | 42 |  |  |  |  |
| COc1ccc(C(=C/C=C/C(=O)Nc2ccc(Cc3cccnc3)cc2)c2ccc(OC)cc2)cc1 | 3 |  |  |  |  |
| COc1ccc(C(=C/C=C/C(=O)NC(C)(C)CCCc2cccnc2)c2ccc(OC)cc2)cc1 | 97 | 54 | 0.27 | 55 |  |
| CCCCC/C(=C/C=C/C(=O)N[C@H](C)CCCc1cccnc1)c1ccc(OC)cc1 | 57 | 13 | 0.78 |  |  |
| COc1ccc(C(=C/C=C/C(=O)NC(C)CCCc2cccnc2C)c2ccc(OC)cc2)cc1 (stereo not given) | 47 |  | 1.1 |  |  |
| COc1ccc(C(=C/C=C/C(=O)NC(C)CCCc2ccc(C)nc2)c2ccc(OC)cc2)cc1 (stereo not given) | 5 |  |  |  |  |

| SMILES | inhibition in vivo at 1 mg/kg (Cavia porcellus [1]) [%] | inhibition [2] [%] | ID50 [3] [mg/kg] | ED50 (Cavia porcellus [4]) [mg/kg] | inhibition in vivo at 50 mg/kg (Cavia porcellus [5]) [%] |
| --- | --- | --- | --- | --- | --- |
| COc1ccc(/C(=C\C=C\C(=O)N[C@H](C)CCCc2cccnc2)c2ccccc2)cc1 | 74 | 0 | 0.5 |  |  |
| Cc1ccc(C(=C/C=C/C(=O)NCCCCc2cccnc2)c2ccc(C)cc2)cc1 | 95 | 67 | 0.26 | 43 | 11 |
| C[C@H](CCCc1cccnc1)NC(=O)/C=C/C=C(c1cccc(F)c1)c1cccc(F)c1 | 73 | 91 | 0.22 | 37 | 87 |
| COc1ccc(C(=C/C=C/C(=O)N[C@@H](CCCc2cccnc2)C2CC2)c2ccc(OC)cc2)cc1 | 98 | 99 | 0.2 | 6 | 82 |
| COc1cccc(C(=C/C=C/C(=O)N[C@@H](C)CCCc2cccnc2)c2cccc(OC)c2)c1 | 36 | 10 |  |  |  |
| CCC[C@H](CCCc1cccnc1)NC(=O)/C=C/C=C(c1ccc(OC)cc1)c1ccc(OC)cc1 | 24 |  |  |  |  |
| O=C(/C=C/C=C(c1cccc(Cl)c1)c1cccc(Cl)c1)NCCCCc1cccnc1 | 76 | 23 | 0.47 |  |  |
| COc1ccc(/C(=C/C=C/C(=O)N[C@H](C)CCCc2cccnc2)C(C)C)cc1 | 89 | 71 | 0.41 | 30 | 20 |
| COc1ccc(/C(=C/C=C/C(=O)N[C@H](C)CCCc2cccnc2)c2ccccc2)cc1 | 89 | 95 | 0.16 |  | 53 |
| CC[C@@H](CCCc1cccnc1)NC(=O)/C=C/C=C(c1ccc(OC)cc1)c1ccc(OC)cc1 | 44 |  |  |  |  |
| O=C(/C=C/C=C(c1cccc([N+](=O)[O-])c1)c1cccc([N+](=O)[O-])c1)NCCCCc1cccnc1 | 78 |  | 0.26 |  |  |
| COc1ccc(C(=C/C=C/C(=O)NCCCOc2cccnc2)c2ccc(OC)cc2)cc1 | 43 |  |  |  |  |
| COc1ccc(C(=C/C=C/C(=O)NCCCCc2cccnc2)c2ccc(OC)c(OC)c2)cc1OC | 78 | 71 | 0.54 | 27 | 17 |
| O=C(/C=C/C=C(c1ccc(Cl)cc1)c1ccc(Cl)cc1)NCCCCc1cccnc1 | 95 | 54 | 0.18 | 50 |  |
| COc1cccc(C(=C/C=C/C(=O)NCCCCc2cccnc2)c2cccc(OC)c2)c1 | 69 | 31 | 0.36 | 80 |  |
| COc1ccc(C(=C/C=C/C(=O)NCCCCc2cccnc2)c2ccc(OC)cc2)cc1 | 92 | 82 | 0.25 | 12 | 71 |
| COc1ccc(C(=C/C=C/C(=O)NCCOCc2cccnc2)c2ccc(OC)cc2)cc1 | 48 |  |  |  |  |
| COc1ccc(/C(=C/C=C/C(=O)N[C@H](C)CCCc2cccnc2)C2CCCCC2)cc1 | 73 | 97 | 0.21 | 10 | 12 |
| Cc1ccc(C(=C/C=C/C(=O)N[C@H](C)CCCc2cccnc2)c2ccc(C)cc2)cc1 | 97 | 91 | 0.3 | 18 | 14 |
| CCC/C(=C\C=C\C(=O)N[C@H](C)CCCc1cccnc1)c1ccc(OC)cc1 | 86 | 9 | 0.52 |  |  |
| COc1ccccc1C(=C/C=C/C(=O)NCCCCc1cccnc1)c1ccccc1OC | 40 |  |  |  |  |
| COc1ccc(C(=C/C=C/C(=O)N[C@@H](C)CCCc2cccnc2)c2ccc(OC)cc2)cc1 | 59 | 90 | 0.84 | 29 | 56 |
